# Measurements published in patent publication US8541444B2, “Triazolopyridine 11-beta hydroxysteroid dehydrogenase type I inhibitors” (Bristol-Myers Squibb Company, priority 2007, dated 2013).
# pIC50: −log10 of the molar value.
# Tested on: not listed separately
# Test: Moisture sorption study
# Assay type: physicochemical
# Conditions: Form N-1 of the HCl salt; range from about 25 to about 75% RH at 25° C.
# Description: Moisture sorption isotherms were collected in a VTI SGA-100 Symmetric Vapor Analyzer using approximately 10 mg of sample. The sample was dried at 60° C. until the loss rate of 0.0005 wt %/min was obtained for 10 minutes. The sample was tested at 25° C. and 3 or 4, 5, 15, 25, 35, 45, 50, 65, 75, 85, and 95% RH. Equilibration at each RH was reached when the rate of 0.0003 wt %/min for 35 minutes was achieved or a maximum of 600 minutes.
row,hygroscopicity (moisture sorption isotherm),SMILES
1,non-hygroscopic,"CC(C)(O)c1cccn2c(C3(c4ccc(Cl)cc4)CC3)nnc12.Cl [Example 1G, 2-(3-(1-(4-Chlorophenyl)cyclopropyl)-[1,2,4]triazolo[4,3-a]pyridin-8-yl)propan-2-ol HCl Salt]"

# Molecular target: T1, 11beta-HSD1 (Mus musculus, UniProt P50172)
# T1 construct: from tissue; host or cells: whole animal: diet induced obese (DIO) mice, Jackson Laboratory
# T1 sequence (P50172 whole entry): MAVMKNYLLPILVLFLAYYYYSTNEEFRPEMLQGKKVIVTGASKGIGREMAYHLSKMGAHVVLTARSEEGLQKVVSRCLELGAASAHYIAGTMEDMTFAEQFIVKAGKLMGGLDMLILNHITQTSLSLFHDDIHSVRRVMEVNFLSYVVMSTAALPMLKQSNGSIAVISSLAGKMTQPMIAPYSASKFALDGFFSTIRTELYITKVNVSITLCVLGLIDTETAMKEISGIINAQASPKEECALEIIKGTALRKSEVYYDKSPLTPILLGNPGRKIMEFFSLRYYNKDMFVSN
# Test: In vivo inhibition of 11beta-HSD1: DHC to corticosterone conversion in DIO mice
# Conditions: 30 mpk oral, plasma corticosterone AUC after DHC 10 mg/kg given 60 minutes post compound
# Description: The in vivo inhibition of […] 11beta-HSD1 was determined as follows.
# Studies were conducted utilizing diet induced obese (DIO) mice obtained from Jackson Laboratory (ME, USA). These mice were fed a 60% fat diet (Research Diets D12492) soon after weaning and kept on this diet for 24 weeks. These mice were individually housed. […]. The animals continued on this diet and were utilized for experimentation at 30 to 32 weeks of age, at which time these mice weighed 45 to 55 grams.
# The basic model of 11-dehydrocorticosterone (DHC) administration to mice to produce corticosterone has been reported in the literature for clinical and preclinical evaluation of the activity of 11β-HSD. […] Plasma was separated and collected and immediately frozen at −20° C. until corticosterone analysis could be assessed.
# Plasma Corticosterone was measured using an EIA (IDS AC-14F1). Samples were measured at (1:2) for the −30(or −60 minute) and 0 time point and (1:10) for the 30, 60 and 120 minutes time points. AUC was calculated using Graphpad and the zero timepoint was used as the baseline. One way ANOVA was calculated using Sigmastat. […]
# The vehicle utilized for the suspension of the compounds was 0.5% methocel; 0.1% tween 80 in water. […] Compounds were administered in 7.5 ml/kg volumes at final dosages of 0.1 to 300 mg/kg depending on the study and compound evaluated.
row,inhibition at 30 mg/kg,SMILES
1,53%,"CC(C)(O)c1cccn2c(C3(c4ccc(Cl)cc4)CC3)nnc12 [Example 1, 2-(3-(1-(4-Chlorophenyl)cyclopropyl)-[1,2,4]triazolo[4,3-a]pyridin-8-yl) propan-2-ol]"
2,69%,CC(C)(O)c1cccn2c(C3(c4ccc(Cl)cc4)CCC3)nnc12 [Example 11]

# Molecular target: T2, recombinant human 11beta-HSD1 (Homo sapiens, UniProt P28845)
# T2 construct: Full length recombinant human 11β-HSD1 cDNAs and the cDNA encoding human 11β-HSD2 were expressed stably in HEK 293 EBNA cells; made in house; microsome fraction used
# T2 sequence (P28845 whole entry): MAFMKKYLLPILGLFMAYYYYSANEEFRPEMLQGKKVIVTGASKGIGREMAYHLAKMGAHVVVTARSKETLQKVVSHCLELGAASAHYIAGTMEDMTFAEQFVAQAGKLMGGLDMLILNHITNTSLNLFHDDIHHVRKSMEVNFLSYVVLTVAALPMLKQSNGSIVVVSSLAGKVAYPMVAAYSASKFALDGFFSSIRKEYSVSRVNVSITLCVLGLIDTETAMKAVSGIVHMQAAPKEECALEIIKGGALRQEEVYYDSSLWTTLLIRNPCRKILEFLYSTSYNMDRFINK
# Test: 11β-HSD1 SPA enzyme assay (in vitro inhibition of recombinant human 11beta-HSD1)
# Assay type: biochemical
# Conditions: human 11β-HSD1 microsomes from HEK 293 EBNA cells, 3H-cortisone 40 nM, 4 hrs room temperature
# Description: The in vitro inhibition of recombinant human 11beta-HSD1 was determined as follows.
# The supernatant was further centrifuged at 105,000×g for […]. The 105,000×g pellet was resuspended in buffer H and centrifuged at 105,000×g for 60 min. […] Aliquots were stored at −80° C. until needed. The protein concentration was measured by the BioRad method using BSA standard.
# Compounds were dissolved in DMSO to obtain 10 mM stock concentrations. From the 10 mM stock, the compounds were diluted in DMSO to achieve the concentrations.
# 11β-HSD1 SPA Enzyme Assay
# 11β-HSD1 was assayed by Scintillation Proximity assay in a 384-well Perkin Elmer white plate. The dose response of the compounds was determined using 11 half-log dilutions of compound in DMSO in duplicate. To each well, 0.5 μl of compound dilution in DMSO were added. 15 μl of assay buffer (for blanks) or 15 μl of human microsomes in assay buffer were added next and the plates were incubated for 10 min at room temperature. The final microsomal protein concentration was 1.1 μg/assay. Duplicates were in the same plate one row below the other. 10 μl of ^3H-cortisone (final concentration 40 nM) was added to each well and the plate was spun down to mix and bring down the contents to the bottom of the wells. The plates were incubated at room temperature with gentle shaking for 4 hrs. […] Then, 0.5 mg of yttrium silicate SPA beads coupled to anti-cortisol antibody in 20 μl were added to all the wells of plate, which were spun down once more and incubated at room temperature overnight. The plate was read in a TopCount® (1 min/well). Data were uploaded automatically to Tool Set, a Lead Evaluation informatics program for data capture and calculation. Graphs were generated with the Curve Master program.
row,pIC50,SMILES
1,7.70,"CC(C)(O)c1cccc2c(C3(c4ccc(Cl)cc4)CC3)nnn12 [Example 6, 2-(3-(1-(4-Chlorophenyl)cyclopropyl)-[1,2,3]-triazolo[1,5-a]pyridin-7-yl) propan-2-ol]"
2,5.11,CC(C)(O)c1cccn2c(C3(C(=O)O)CC3)nnc12 [Example 80]
3,5.86,Cc1ccc(S(=O)(=O)C2(c3nnc4c(C(C)(C)O)cccn34)CC2)cc1C [Example 90]
4,6.98,CC(C)(O)c1cccn2c(C3(c4nnn(Cc5ccc(F)cc5)n4)CC3)nnc12 [Example 110]
5,7.46,CN(C)C(=O)c1ccc(C2(c3nnc4c(C(C)(C)O)cccn34)CC2)cc1 [Example 86]
6,8.64,"CC(C)(O)c1cccn2c(C3(c4ccc(Cl)cc4)CC3)nnc12 [Example 1, 2-(3-(1-(4-Chlorophenyl)cyclopropyl)-[1,2,4]triazolo[4,3-a]pyridin-8-yl) propan-2-ol]"
7,7.14,CC(C)(O)c1cccn2c(C3(c4ccc(Cl)c(Cc5nnn[nH]5)c4)CC3)nnc12 [Example 42]
8,6.72,CC(C)(O)c1cccn2c(C3(c4nc(-c5ccccc5)c[nH]4)CC3)nnc12 [Example 104]
9,5.55,CC(C)(O)c1cccn2c(C3(c4nnn(Cc5ccccc5)n4)CC3)nnc12 [Example 112]
10,5.26,CC(C)(c1cccn2c(C3(c4ccc(Cl)cc4)CCC3)nnc12)c1nnnn1CCC#N [Example 59]
11,9.30,CC(C)(O)c1cccn2c(C3(c4nc(-c5ccc(Cl)cc5)cs4)CC3)nnc12 [Example 111]
12,9.15,CC(C)(O)c1cccn2c(C3(c4ccc(Cl)cc4F)CC3)nnc12 [Example 54]
13,9.22,CC(C)(O)c1cccn2c(C3(c4nc(-c5ccc(F)cc5)cs4)CC3)nnc12 [Example 109]
14,9.40,CC(C)(O)c1cccn2c(C3(c4ccc(-c5ccc(F)cc5)cc4)CC3)nnc12 [Example 51]
